# Assay results: PubChem BioAssay (NCI)
#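 Method: 48-hour compound exposure of cells in 96-well plates, five concentrations, linear interpolation of endpoints. TGI: concentration producing complete growth inhibition.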
# Key:
# Test in all cases: DTP human tumour cell line panel, 48 h
# SF-268 CNS = tested on: SF-268 CNS
# MALME-3M melanoma = tested on: MALME-3M melanoma
# HL-60(TB) leukemia = tested on: HL-60(TB) leukemia
# ACHN renal = tested on: ACHN renal
# SR leukemia = tested on: SR leukemia
# NCI-H460 lung = tested on: NCI-H460 lung
# SW-620 colon = tested on: SW-620 colon
# A549 NSCLC = tested on: A549 NSCLC
# OVCAR-8 ovarian = tested on: OVCAR-8 ovarian
# MCF7 breast = tested on: MCF7 breast
# TK-10 renal = tested on: TK-10 renal
# K-562 leukemia = tested on: K-562 leukemia
# T-47D breast = tested on: T-47D breast
# NCI/ADR-RES ovarian = tested on: NCI/ADR-RES ovarian
# LOX IMVI melanoma = tested on: LOX IMVI melanoma
# RPMI-8226 leukemia = tested on: RPMI-8226 leukemia
# HCC-2998 colon = tested on: HCC-2998 colon
# U251 CNS = tested on: U251 CNS
# EKVX NSCLC = tested on: EKVX NSCLC
# HCT-116 colon = tested on: HCT-116 colon
# SN12C renal = tested on: SN12C renal
# M14 melanoma = tested on: M14 melanoma
# COLO 205 colon = tested on: COLO 205 colon
# BT-549 breast = tested on: BT-549 breast
# SNB-75 CNS = tested on: SNB-75 CNS
# KM12 colon = tested on: KM12 colon
# PC-3 prostate = tested on: PC-3 prostate
# IGROV1 ovarian = tested on: IGROV1 ovarian
# DU-145 prostate = tested on: DU-145 prostate
# UACC-257 melanoma = tested on: UACC-257 melanoma
# NCI-H23 lung = tested on: NCI-H23 lung
# HCT-15 colon = tested on: HCT-15 colon
# SF-295 CNS = tested on: SF-295 CNS
# SK-MEL-2 melanoma = tested on: SK-MEL-2 melanoma
# OVCAR-4 ovarian = tested on: OVCAR-4 ovarian
# NCI-H226 lung = tested on: NCI-H226 lung
# MDA-MB-231 breast = tested on: MDA-MB-231 breast
# A498 renal = tested on: A498 renal
# SNB-19 CNS = tested on: SNB-19 CNS
# UO-31 renal = tested on: UO-31 renal
# SK-MEL-28 melanoma = tested on: SK-MEL-28 melanoma
# HT29 colon = tested on: HT29 colon
# SF-539 CNS = tested on: SF-539 CNS
# CCRF-CEM leukemia = tested on: CCRF-CEM leukemia
# SK-OV-3 ovarian = tested on: SK-OV-3 ovarian
# OVCAR-5 ovarian = tested on: OVCAR-5 ovarian
# SK-MEL-5 melanoma = tested on: SK-MEL-5 melanoma
# CAKI-1 renal = tested on: CAKI-1 renal
# OVCAR-3 ovarian = tested on: OVCAR-3 ovarian
# HOP-92 NSCLC = tested on: HOP-92 NSCLC
# HOP-62 NSCLC = tested on: HOP-62 NSCLC
# RXF 393 renal = tested on: RXF 393 renal
# NCI-H522 lung = tested on: NCI-H522 lung
# MDA-N = tested on: MDA-N
# HS 578T breast = tested on: HS 578T breast
# 786-0 renal = tested on: 786-0 renal
# MDA-MB-435 = tested on: MDA-MB-435
# MOLT-4 leukemia = tested on: MOLT-4 leukemia
# UACC-62 melanoma = tested on: UACC-62 melanoma
smiles,measurement,setting,value
CC1=CC[C@H](C(C)C)C(C(O)[C@@H](C)O[Si](c2ccccc2)(c2ccccc2)C(C)(C)C)C1=O (stereo partly drawn),TGI,SF-268 CNS,54.8 µM
same,TGI,MALME-3M melanoma,52.8 µM
same,TGI,HL-60(TB) leukemia,42.6 µM
same,TGI,ACHN renal,31.1 µM
same,TGI,SR leukemia,> 100 µM
same,TGI,NCI-H460 lung,37.2 µM
same,TGI,SW-620 colon,65.5 µM
same,TGI,A549 NSCLC,38.4 µM
same,TGI,OVCAR-8 ovarian,54.1 µM
same,TGI,MCF7 breast,44.2 µM
same,TGI,TK-10 renal,31.7 µM
same,TGI,K-562 leukemia,> 100 µM
same,TGI,T-47D breast,46.1 µM
same,TGI,NCI/ADR-RES ovarian,38.1 µM
same,TGI,LOX IMVI melanoma,45.7 µM
same,TGI,RPMI-8226 leukemia,48 µM
same,TGI,HCC-2998 colon,29 µM
same,TGI,U251 CNS,31.8 µM
same,TGI,EKVX NSCLC,28.9 µM
same,TGI,HCT-116 colon,28.7 µM
same,TGI,SN12C renal,37.9 µM
same,TGI,M14 melanoma,32.6 µM
same,TGI,COLO 205 colon,47.6 µM
same,TGI,BT-549 breast,37.5 µM
same,TGI,SNB-75 CNS,54.4 µM
same,TGI,KM12 colon,48.3 µM
same,TGI,PC-3 prostate,33.6 µM
same,TGI,IGROV1 ovarian,64.8 µM
same,TGI,DU-145 prostate,65.4 µM
same,TGI,UACC-257 melanoma,31.5 µM
same,TGI,NCI-H23 lung,40.2 µM
same,TGI,HCT-15 colon,36.4 µM
same,TGI,SF-295 CNS,33.1 µM
same,TGI,SK-MEL-2 melanoma,32 µM
same,TGI,OVCAR-4 ovarian,41 µM
same,TGI,NCI-H226 lung,44 µM
same,TGI,MDA-MB-231 breast,32.4 µM
same,TGI,A498 renal,35.5 µM
same,TGI,SNB-19 CNS,33.5 µM
same,TGI,UO-31 renal,31.7 µM
same,TGI,SK-MEL-28 melanoma,> 100 µM
same,TGI,HT29 colon,31.7 µM
same,TGI,SF-539 CNS,44.1 µM
same,TGI,CCRF-CEM leukemia,63.8 µM
same,TGI,SK-OV-3 ovarian,79.7 µM
same,TGI,OVCAR-5 ovarian,36.2 µM
same,TGI,SK-MEL-5 melanoma,33.7 µM
same,TGI,CAKI-1 renal,36.2 µM
same,TGI,OVCAR-3 ovarian,35.5 µM
same,TGI,HOP-92 NSCLC,37.9 µM
same,TGI,HOP-62 NSCLC,47.6 µM
same,TGI,RXF 393 renal,30.8 µM
same,TGI,NCI-H522 lung,37.6 µM
same,TGI,MDA-N,53 µM
same,TGI,HS 578T breast,67 µM
same,TGI,786-0 renal,32.7 µM
same,TGI,MDA-MB-435,51.3 µM
same,TGI,MOLT-4 leukemia,> 100 µM
same,TGI,UACC-62 melanoma,33.6 µM
CC(C)(C)OCC1NC(=O)[C@@H]2Cc3c([nH]c4ccccc34)C(c3ccccc3)N2C1=O (stereo partly drawn),TGI,SF-268 CNS,> 50 µM
same,TGI,MALME-3M melanoma,> 50 µM
same,TGI,HL-60(TB) leukemia,> 50 µM
same,TGI,ACHN renal,> 50 µM
same,TGI,SR leukemia,> 33 µM
same,TGI,NCI-H460 lung,> 50 µM
same,TGI,SW-620 colon,> 50 µM
same,TGI,A549 NSCLC,> 50 µM
same,TGI,OVCAR-8 ovarian,> 50 µM
same,TGI,MCF7 breast,> 50 µM
same,TGI,TK-10 renal,> 50 µM
same,TGI,K-562 leukemia,> 50 µM
same,TGI,T-47D breast,> 50 µM
same,TGI,NCI/ADR-RES ovarian,> 50 µM
same,TGI,LOX IMVI melanoma,> 50 µM
same,TGI,RPMI-8226 leukemia,> 33.7 µM
same,TGI,HCC-2998 colon,> 50 µM
same,TGI,U251 CNS,> 50 µM
same,TGI,EKVX NSCLC,> 50 µM
same,TGI,HCT-116 colon,> 50 µM
same,TGI,SN12C renal,> 50 µM
same,TGI,M14 melanoma,> 50 µM
same,TGI,COLO 205 colon,> 50 µM
same,TGI,BT-549 breast,> 50 µM
same,TGI,SNB-75 CNS,> 50 µM
same,TGI,KM12 colon,> 50 µM
same,TGI,PC-3 prostate,> 50 µM
same,TGI,IGROV1 ovarian,> 50 µM
same,TGI,DU-145 prostate,> 50 µM
same,TGI,UACC-257 melanoma,> 50 µM
same,TGI,NCI-H23 lung,> 50 µM
same,TGI,HCT-15 colon,> 50 µM
same,TGI,SF-295 CNS,> 50 µM
same,TGI,SK-MEL-2 melanoma,> 50 µM
same,TGI,OVCAR-4 ovarian,> 50 µM
same,TGI,NCI-H226 lung,> 50 µM
same,TGI,MDA-MB-231 breast,> 50 µM
same,TGI,A498 renal,> 50 µM
same,TGI,SNB-19 CNS,> 50 µM
same,TGI,UO-31 renal,> 50 µM
same,TGI,SK-MEL-28 melanoma,> 50 µM
same,TGI,HT29 colon,> 50 µM
same,TGI,SF-539 CNS,> 50 µM
same,TGI,CCRF-CEM leukemia,> 50 µM
same,TGI,SK-OV-3 ovarian,> 50 µM
same,TGI,OVCAR-5 ovarian,> 50 µM
same,TGI,SK-MEL-5 melanoma,> 50 µM
same,TGI,CAKI-1 renal,> 50 µM
same,TGI,OVCAR-3 ovarian,> 50 µM
same,TGI,HOP-92 NSCLC,> 50 µM
same,TGI,HOP-62 NSCLC,> 50 µM
same,TGI,RXF 393 renal,> 50 µM
same,TGI,NCI-H522 lung,> 50 µM
same,TGI,MDA-N,> 50 µM
same,TGI,HS 578T breast,> 50 µM
same,TGI,786-0 renal,> 50 µM
same,TGI,MDA-MB-435,> 50 µM
same,TGI,MOLT-4 leukemia,> 32.7 µM
same,TGI,UACC-62 melanoma,> 50 µM
